Structures can show the parent of a compound that is named as a salt.
Tested on: Jurkat cells
Assay: Cell cycle analysis (propidium iodide staining, flow cytometry)
Format: cell-based, human
Details: 48 h, at IC50 concentration (59 μM Dihydro BA; 4 μM 15, 15c, 18c; 8 μM 20c); for cells in G2/M phase: control 14.5%
Description: Cell cycle was analyzed using the method of propidium iodide staining. Briefly, cells were plated in 24-well round bottom plates at density 10 × 10^5 cells per well, centrifuged at 450× g for 5 min, and fixed with ice-cold 70% ethanol for 24 h at 0 °C. Cells were then washed with PBS and incubated with 250 μL of Guava Cell Cycle Reagent (Millipore, Burlington, MA, USA) for 30 min at room temperature in the dark. Samples were analyzed on NovoCyte^TM 2000 FlowCytometry System (ACEA, San Diego, CA, USA).
Figure 3 Cell cycle analysis in Jurkat cells. […] The cells were trypsinized, harvested and washed three times with ice-PBS for PI-stained DNA content detected by flow cytometry. The experiments were performed three times, and the results of the representative experiments are shown. The first cytogram represents an untreated cell sample (A); after incubation with dihydrobetulinic acid for 48 h (B); after incubation with compound 15 for 24 h (C) and for 48 h (D); after incubation with compound 15c for 24 h (E) and for 48 h (F); after incubation with compound 18c for 24 h (G) and for 48 h (H); after incubation with compound 20c for 24 h (I) and for 48 h (J). […]

Row | Compound | cells in G2/M phase [%] | cells in S phase (control 38.3%) [%]
1 | CC(=O)O[C@H]1CC[C@@]2(C)C(CC[C@]3(C)C2CCC2C4C(C(C)C)CC[C@]4(C(=O)OCC(N)(CO)CO)CC[C@]23C)C1(C)C (stereo partly drawn) [Compound 15, 3β-[2-Amino-3-hydroxy-2-(hydroxymethyl)propyl]-3-O-acetyl-lupane-28-oate] | 7.0 | 72.7
2 | CC(=O)O[C@H]1CC[C@@]2(C)C(CC[C@]3(C)C2CCC2C4C(C(C)C)CC[C@]4(C(=O)OCC(CO)(CO)NC(=N)N)CC[C@]23C)C1(C)C (stereo partly drawn) [Compound 15c, 3β-[2-Guanidine-3-hydroxy-2-(hydroxymethyl)propyl]-3-O-acetyl-lupane-28-oate hydrochloride] | 1.5 | –
